Test results as given in patent EP0807435A2, “Indirect HMG-CoA-reductase inhibitor” (Sertürner Arzneimittel GmbH, priority 1996, dated 1997).

Tests used:
[1] = system: kultivierten Rattenhepatocyten; test: Incorporation of 14C-labelled acetate into the non-saponifiable neutral lipid fraction (cholesterol de novo synthesis); type: cell-based, Ratten
Experimental: Erfindungsgemäß wurde überraschenderweise an Hand von Messungen des Einbaus von ^14[…] in die Fraktion der nicht-verseifbaren neutralen Lipide von kultivierten Rattenhepatocyten nachgewiesen, daß Luteolin, seine Derivate und […] Verbindungen konzentrationsabhängig die Neusynthese von Cholesterin in […]. Bei Verwendung eines Luteolin-7-0-glucosid-[…] Kulturmedium in einer Konzentration zwischen 0,02 und 0,1 mg/ml […] (Plateau) von ca. 20% ein, ohne daß zytotoxische Wirkungen nachweisbar wären. Bei höheren Konzentrationen (bis 1 mg/ml) […] noch […] auf (maximal 85 %), ohne […] von 2 mg/ml einsetzen. Durch Ersatz des ^14[…] durch […] vor der Bildung von Mevalonat lag; Hemmwirkungen, die zu einer Verschiebung des Musters der Vorläufersterine des Cholesterin […]. Die Aktivität der HMG-CoA-Reduktase, des Schlüsselenzyms der Cholesterinsynthese, wird somit indirekt über […] oder […] des Enzyms gedrosselt.

[2] = rabbits, blood lipids raised by cholesterol diet (200 mg Cholesterin pro kg Körpergewicht über 60 Tage); Chem. Abstr. 76; cited from earlier work

Compound | Neusynthese von Cholesterin in den Leberzellen ([1]; 14C-acetate incorporation, cultured rat hepatocytes) | lipidsenkende Wirkung im Tierversuch [2] | Hemmung der Cholesterinneusynthese ([1]; concentrations that are maximally achievable in artichoke leaf extract preparations)
O=c1cc(-c2ccc(O)c(O)c2)oc2cc(O)cc(O)c12 [Luteolin, 31,41,5-Tetrahydroxyflavon] | konzentrationsabhängig die Neusynthese von Cholesterin in den Leberzellen vermindern | lipidsenkende Wirkung | –
Luteolin-7-Glycosid | – | lipidsenkende Wirkung | –
O=C(/C=C/c1ccc(O)c(O)c1)O[C@@H]1C[C@@](OC(=O)/C=C/c2ccc(O)c(O)c2)(C(=O)O)C[C@@H](O)[C@@H]1O [Cynarin, 1,5-Di-Caffeoyl-D-Chinasäure, reference compound] | – | – | keinerlei Hemmung
